“Also recorded” adds a separate entry of the source.
Legend:
2′-deoxyguanosine (dG) [1] = assay: 8OHdG produced from added dG, standing at room temperature or UV irradiation (Examples 1-7); conditions: for evaluation in words: oxidation induction or antioxidant ability toward dG: conclusions of Examples 2-7; for 8OHdG concentration, UV irradiation 60 minutes: ultrapure water 0.392; for 8OHdG concentration, UV irradiation 90 minutes: ultrapure water 0.901; for 8OHdG concentration, UV irradiation 120 minutes: ultrapure water 1.183;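 on all read-outs here: Cell-free test: dG in test solution, held at room temperature or exposed to 254 nm UV, then 8OHdG quantified by HPLC with electrochemical detection, compared against dG in ultrapure water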
Procedure: Separately, the amount of 8OHdG after an ultrapure water solution of dG is left to stand under the same conditions as above for a predetermined time is measured (this value is defined as B). If A is greater than B, the test substance is evaluated to have oxidation induction ability and conversely if A is smaller than B, the test substance is evaluated to have antioxidant ability. In either case, it is judged that the greater the difference is, the greater degree of oxidation induction ability or antioxidant capability the test substance has.
Then, 20 μl of 200 μg/ml dG (dissolved in ultrapure water) was added to each well and one of the plates was left to stand as it was at room temperature for 90 minutes and the other plate was irradiated with UV light (254 nm, 860 μW/cm^2) for 90 minutes in a UV light irradiation box. […] Subsequently, nucleosides in the both were quantified by use of the UV light absorption analyzer connected to the HPLC and the electrochemical detector.
Solutions of predetermined concentrations of vitamin C (VC), vitamin E (VE), catechin (Cate) and tannic acid (Tan) were prepared and 180 μl portions were injected into each well of two 99-well plastic plates. Then, 20 μl of 200 μg/ml dG (dissolved in ultrapure water) was added to each well and one of the plates was left to stand as it was at room temperature for 90 minutes and the other plate was irradiated with UV light (254 nm, 860 μW/cm^2) for 90 minutes in a UV light irradiation box.
Then, 20 μl of 200 μg/ml dG (dissolved in ultrapure water) was added to each well and one of the plates was left to stand as it was at room temperature for 90 minutes and another plate was left to stand similarly at room temperature for 24 hours. The remaining three plates were irradiated with UV light (254 nm, 860 μW/cm^2) for 60 minutes, 90 minutes and 120 minutes, respectively, in a UV light irradiation box.
Solutions of predetermined concentrations of glucose (Glu), raffinose (Raffi) and sucrose (Suc) were prepared and 180 μl portions thereof were injected into each well of four 99-well plastic plates. Then, 20 μl of 200 μg/ml dG (dissolved in ultrapure water) was added to each well and one of the plates was left to stand as it was at room temperature for 90 minutes. The remaining three plates were irradiated with UV light (254 nm, 860 μW/cm^2) for 60 minutes, 90 minutes and 120 minutes, respectively, in a UV light irradiation box.
Then, 20 μl of 200 μg/ml dG (dissolved in ultrapure water) was added to each well and one of the plates was left to stand as it was at room temperature for 90 minutes and the other plate was irradiated with UV light (254 nm, 860 μW/cm^2) for 90 minutes in a UV light irradiation box.
Solutions of various concentrations of uric acid (dissolving fluid: distilled water+0.025% FBS) were prepared and 180 μl portions thereof were injected into each well of two 99-well plastic plates. Then, 20 μl of 200 μg/ml dG (dissolved in ultrapure water) was added to each well and one of the plates was left to stand as it was at room temperature for 90 minutes and the other plate was irradiated with UV light (254 nm, 860 μW/cm^2) for 90 minutes in a UV light irradiation box.

2′-deoxyguanosine (dG) [2] = assay: 8OHdG produced from dG with test substance and coexisting bisphenol A, standing or UV (Example 9); type: biochemical
Procedure: 170 μl portions of ultrapure water and predetermined concentrations of vitamin C (VC), vitamin E (VE), and glucose (Glu) as test substance were added to each well of two […] plastic plates and, as additional solution, 20 μl of ultrapure water or predetermined concentration of bisphenol A (BPA) were injected into each well.

[3] = test substance 0.001%, additional solution ultrapure water

SMILES: O=c1[nH]c(=O)c2[nH]c(=O)[nH]c2[nH]1 [uric acid]
- 8OHdG concentration, 90 Minutes' standing (2′-deoxyguanosine (dG) [1]; 0.01 μg/ml, Table 6, dissolving fluid 0.218): 0.176 ng/mL
- 8OHdG concentration, 90 Minutes' UV irradiation (2′-deoxyguanosine (dG) [1]; 0.01 μg/ml, Table 6, dissolving fluid 1.007): 1.064 ng/mL
- 8OHdG concentration, 90 Minutes' standing (2′-deoxyguanosine (dG) [1]; 0.1 μg/ml, Table 6, dissolving fluid 0.218): 0.193 ng/mL
- 8OHdG concentration, 90 Minutes' UV irradiation (2′-deoxyguanosine (dG) [1]; 0.1 μg/ml, Table 6, dissolving fluid 1.007): 0.966 ng/mL
- 8OHdG concentration, 90 Minutes' standing (2′-deoxyguanosine (dG) [1]; 1 μg/ml, Table 6, dissolving fluid 0.218): 0.175 ng/mL
- 8OHdG concentration, 90 Minutes' UV irradiation (2′-deoxyguanosine (dG) [1]; 1 μg/ml, Table 6, dissolving fluid 1.007): 2.369 ng/mL
- 8OHdG concentration, 90 Minutes' standing (2′-deoxyguanosine (dG) [1]; 10 μg/ml in distilled water+0.025% FBS, Table 6, dissolving fluid 0.218): 0.147 ng/mL
- 8OHdG concentration, 90 Minutes' UV irradiation (2′-deoxyguanosine (dG) [1]; 10 μg/ml in distilled water+0.025% FBS, Table 6, dissolving fluid 1.007): 15.619 ng/mL
- evaluation in words: oxidation induction or antioxidant ability toward dG (2′-deoxyguanosine (dG) [1]): high degree of DNA oxidation injury

SMILES: NC(=O)NCCC[C@H](N)C(=O)O [Cit, 1-citrulline]
- 8OHdG concentration, 90 Minutes' standing (2′-deoxyguanosine (dG) [1]; 1 μg/ml, Table 5, ultrapure water 0.219): 0.184 ng/mL
- 8OHdG concentration, 90 Minutes' UV irradiation (2′-deoxyguanosine (dG) [1]; 1 μg/ml, Table 5, ultrapure water 0.422): 0.332 ng/mL
- 8OHdG concentration, 90 Minutes' standing (2′-deoxyguanosine (dG) [1]; 10 μg/ml, Table 5, ultrapure water 0.219): 0.179 ng/mL
- 8OHdG concentration, 90 Minutes' UV irradiation (2′-deoxyguanosine (dG) [1]; 10 μg/ml, Table 5, ultrapure water 0.422): 0.305 ng/mL
- 8OHdG concentration, 90 Minutes' standing (2′-deoxyguanosine (dG) [1]; 100 μg/ml, Table 5, ultrapure water 0.219): 0.120 ng/mL
- 8OHdG concentration, 90 Minutes' UV irradiation (2′-deoxyguanosine (dG) [1]; 100 μg/ml, Table 5, ultrapure water 0.422): 0.225 ng/mL
- 8OHdG concentration, 90 Minutes' standing (2′-deoxyguanosine (dG) [1]; 1 mg/ml, Table 5, ultrapure water 0.219): 0.156 ng/mL
- 8OHdG concentration, 90 Minutes' UV irradiation (2′-deoxyguanosine (dG) [1]; 1 mg/ml, Table 5, ultrapure water 0.422): 0.125 ng/mL
- evaluation in words: oxidation induction or antioxidant ability toward dG (2′-deoxyguanosine (dG) [1]): exhibited antioxidant ability

SMILES: OC[C@H]1O[C@@](CO)(O[C@H]2O[C@H](CO)[C@@H](O)[C@H](O)[C@H]2O)[C@@H](O)[C@@H]1O [Suc, sucrose]
- 8OHdG concentration, 90 Minutes' standing (2′-deoxyguanosine (dG) [1]; 0.1 μg/ml, Table 4, ultrapure water 0.195): 0.235 ng/mL
- 8OHdG concentration, UV irradiation 60 minutes (2′-deoxyguanosine (dG) [1]; 0.1 μg/ml, Table 4): 0.299 ng/mL
- 8OHdG concentration, UV irradiation 90 minutes (2′-deoxyguanosine (dG) [1]; 0.1 μg/ml, Table 4): 0.756 ng/mL
- 8OHdG concentration, UV irradiation 120 minutes (2′-deoxyguanosine (dG) [1]; 0.1 μg/ml, Table 4): 1.073 ng/mL
- 8OHdG concentration, 90 Minutes' standing (2′-deoxyguanosine (dG) [1]; 1 μg/ml, Table 4, ultrapure water 0.195): 0.185 ng/mL
- 8OHdG concentration, UV irradiation 60 minutes (2′-deoxyguanosine (dG) [1]; 1 μg/ml, Table 4): 0.358 ng/mL
- 8OHdG concentration, UV irradiation 90 minutes (2′-deoxyguanosine (dG) [1]; 1 μg/ml, Table 4): 0.708 ng/mL
- 8OHdG concentration, UV irradiation 120 minutes (2′-deoxyguanosine (dG) [1]; 1 μg/ml, Table 4): 1.143 ng/mL
- 8OHdG concentration, 90 Minutes' standing (2′-deoxyguanosine (dG) [1]; 10 μg/ml, Table 4, ultrapure water 0.195): 0.235 ng/mL
- 8OHdG concentration, UV irradiation 60 minutes (2′-deoxyguanosine (dG) [1]; 10 μg/ml, Table 4): 0.333 ng/mL
- 8OHdG concentration, UV irradiation 90 minutes (2′-deoxyguanosine (dG) [1]; 10 μg/ml, Table 4): 0.690 ng/mL
- 8OHdG concentration, UV irradiation 120 minutes (2′-deoxyguanosine (dG) [1]; 10 μg/ml, Table 4): 1.279 ng/mL
- 8OHdG concentration, 90 Minutes' standing (2′-deoxyguanosine (dG) [1]; 100 μg/ml, Table 4, ultrapure water 0.195): 0.280 ng/mL
- 8OHdG concentration, UV irradiation 90 minutes (2′-deoxyguanosine (dG) [1]; 100 μg/ml, Table 4): 0.379 ng/mL
- 8OHdG concentration, UV irradiation 120 minutes (2′-deoxyguanosine (dG) [1]; 100 μg/ml, Table 4): 0.648 ng/mL
- 8OHdG concentration, 90 Minutes' standing (2′-deoxyguanosine (dG) [1]; 1 mg/ml, Table 4, ultrapure water 0.195): 0.300 ng/mL
- 8OHdG concentration, UV irradiation 60 minutes (2′-deoxyguanosine (dG) [1]; 1 mg/ml, Table 4): 0.127 ng/mL
- 8OHdG concentration, UV irradiation 90 minutes (2′-deoxyguanosine (dG) [1]; 1 mg/ml, Table 4): 0.309 ng/mL
- 8OHdG concentration, UV irradiation 120 minutes (2′-deoxyguanosine (dG) [1]; 1 mg/ml, Table 4): 0.364 ng/mL
- evaluation in words: oxidation induction or antioxidant ability toward dG (2′-deoxyguanosine (dG) [1]): Glu>Raffi≈Suc; also recorded: antioxidant ability as potent as that of Raffi

SMILES: O=C(OC[C@H]1O[C@@H](OC(=O)c2cc(O)c(O)c(OC(=O)c3cc(O)c(O)c(O)c3)c2)[C@H](OC(=O)c2cc(O)c(O)c(OC(=O)c3cc(O)c(O)c(O)c3)c2)[C@@H](OC(=O)c2cc(O)c(O)c(OC(=O)c3cc(O)c(O)c(O)c3)c2)[C@@H]1OC(=O)c1cc(O)c(O)c(OC(=O)c2cc(O)c(O)c(O)c2)c1)c1cc(O)c(O)c(OC(=O)c2cc(O)c(O)c(O)c2)c1 [Tan, tannic acid]
- 8OHdG concentration, 90 Minutes' standing (2′-deoxyguanosine (dG) [1]; 1 μg/ml, Table 2, distilled water 0.15): 0.84 ng/mL
- 8OHdG concentration, 90 Minutes' UV irradiation (2′-deoxyguanosine (dG) [1]; 1 μg/ml, Table 2, distilled water 1.23): 1.04 ng/mL
- 8OHdG concentration, 90 Minutes' standing (2′-deoxyguanosine (dG) [1]; 10 μg/ml, Table 2, distilled water 0.15): 5.64 ng/mL
- 8OHdG concentration, 90 Minutes' UV irradiation (2′-deoxyguanosine (dG) [1]; 10 μg/ml, Table 2, distilled water 1.23): 19.29 ng/mL
- 8OHdG concentration, 90 Minutes' standing (2′-deoxyguanosine (dG) [1]; 100 μg/ml, Table 2, distilled water 0.15): 54.00 ng/mL
- 8OHdG concentration, 90 Minutes' UV irradiation (2′-deoxyguanosine (dG) [1]; 100 μg/ml, Table 2, distilled water 1.23): 97.07 ng/mL
- evaluation in words: oxidation induction or antioxidant ability toward dG (2′-deoxyguanosine (dG) [1]): high gene injury inducing effect

SMILES: O=C1O[C@H]([C@@H](O)CO)C(O)=C1O [VC, ascorbic acid]
- effect on 8OHdG with BPA and UV light irradiation (2′-deoxyguanosine (dG) [2]; Example 9): does not cancel the induction of 8OHdG by BPA
- 8OHdG concentration, 90 Minutes' UV irradiation (2′-deoxyguanosine (dG) [2]; test substance 0.00001%, additional solution BPA (50 ppm), BPA alone 11.58): 14.96 ng/mL
- 8OHdG concentration, 90 Minutes' UV irradiation (2′-deoxyguanosine (dG) [2]; test substance 0.0001%, additional solution BPA (50 ppm), BPA alone 11.58): 15.95 ng/mL
- 8OHdG concentration, 90 Minutes' standing (2′-deoxyguanosine (dG) [2]; test substance 0.001%, additional solution BPA (50 ppm), BPA alone 0.22): 1.51 ng/mL
- 8OHdG concentration, 90 Minutes' UV irradiation (2′-deoxyguanosine (dG) [2]; test substance 0.001%, additional solution BPA (50 ppm), BPA alone 11.58): 12.53 ng/mL
- 8OHdG concentration, 90 Minutes' UV irradiation (2′-deoxyguanosine (dG) [2]; [3]): 5.75 ng/mL
- 8OHdG concentration, 90 Minutes' standing (2′-deoxyguanosine (dG) [2]; [3]): 16.3 ng/mL
- 8OHdG concentration, 90 Minutes' standing (2′-deoxyguanosine (dG) [1]; 0.00001%, Table 2, distilled water 0.15): 0.44 ng/mL
- 8OHdG concentration, 90 Minutes' UV irradiation (2′-deoxyguanosine (dG) [1]; 0.00001%, Table 2, distilled water 1.23): 0.46 ng/mL
- 8OHdG concentration, 90 Minutes' standing (2′-deoxyguanosine (dG) [1]; 0.0001%, Table 2, distilled water 0.15): 0.63 ng/mL
- 8OHdG concentration, 90 Minutes' UV irradiation (2′-deoxyguanosine (dG) [1]; 0.0001%, Table 2, distilled water 1.23): 1.51 ng/mL
- 8OHdG concentration, 90 Minutes' standing (2′-deoxyguanosine (dG) [1]; 0.001%, Table 2, distilled water 0.15): 6.04 ng/mL
- 8OHdG concentration, 90 Minutes' UV irradiation (2′-deoxyguanosine (dG) [1]; 0.001%, Table 2, distilled water 1.23): 38.36 ng/mL
- evaluation in words: oxidation induction or antioxidant ability toward dG (2′-deoxyguanosine (dG) [1]): very strong oxidation inducing substance
- 8OHdG induction on storage (2′-deoxyguanosine (dG) [1]; stored for a long period added to a dG solution in contact with air): a large amount of 8OHdG was induced
